Assay results as given in the NIST ThermoML archive (doi:10.1021/acs.jced.6b01071).
± gives the expanded uncertainty stated by the source.

Tests used:
[1] = refractive index (Na D-line) (dimensionless); details: 298.15 K; 101.33 kPa; Liquid; Standard Abbe refractometry
[2] = Boiling temperature at pressure P; details: 101.3 kPa; Liquid; Ebulliometric method (Recirculating still)
[3] = Liquid; for mass density: 298.15 K, 101.33 kPa, Vibrating tube method; for vapor or sublimation pressure: Ebulliometric method (Recirculating still)

| refractive index [1] | Boiling temperature at pressure P [2] [°C] | mass density [3] [kg/m3] | vapor or sublimation pressure ([3]; 309.68 K) [kPa] | vapor or sublimation pressure ([3]; 320.76 K) [kPa] | vapor or sublimation pressure ([3]; 328.55 K) [kPa] | vapor or sublimation pressure ([3]; 384.76 K) [kPa] | vapor or sublimation pressure ([3]; 400.65 K) [kPa] | vapor or sublimation pressure ([3]; 411.56 K) [kPa] | vapor or sublimation pressure ([3]; 381.15 K) [kPa] | vapor or sublimation pressure ([3]; 381.41 K) [kPa] | vapor or sublimation pressure ([3]; 395.9 K) [kPa] | vapor or sublimation pressure ([3]; 396.04 K) [kPa] | vapor or sublimation pressure ([3]; 406.39 K) [kPa] | vapor or sublimation pressure ([3]; 406.59 K) [kPa] | SMILES |
| --- | --- | --- | --- | --- | --- | --- | --- | --- | --- | --- | --- | --- | --- | --- | --- |
| 1.3264 ± 0.01 | 64.48 ± 0.2 | 786.59 ± 5 | 30 ± 1 | 50 ± 1 | 70 ± 1 | – | – | – | – | – | – | – | – | – | CO [methanol] |
| 1.4277 ± 0.01 | 153.50 ± 0.2 | 943.89 ± 5 | – | – | – | 30 ± 1 | 50 ± 1 | 70 ± 1 | – | – | – | – | – | – | CN(C)C=O [dimethylformamide] |
| 1.3986 ± 0.01 | 145.57 ± 0.2 | 961.52 ± 5 | – | – | – | – | – | – | 30 ± 1 | 30 ± 1 | 50 ± 1 | 50 ± 1 | 70 ± 1 | 70 ± 1 | COCC(C)OC(C)=O (stereo unspecified) [1-methoxy-2-propyl acetate] |
